Measurements from US20130122541A1, “MICROORGANISM PRODUCTION OF HIGH-VALUE CHEMICAL PRODUCTS, AND RELATED COMPOSITIONS, METHODS AND SYSTEMS” (The Regents of the University of Colorado, priority 2010, published 2013).
In brackets after ≈: the same amount, converted by molar mass. Read-outs that look alike come from different tables or passages of the source.

Key:
[1] = 3-HP preparation: neutralisation of commercial 3-HP to pH 7.0, observation of insoluble matter; type: physicochemical
Description: 3-HP was obtained from TCI America (Portland, Oreg.). Significant acrylic acid and 2-oxydipropionic contamination was observed via HPLC analysis. Samples were subsequently treated by diethyl ether extraction to remove acrylic acid and a portion of the 2-oxydipropionic contaminants. Samples were then neutralized with 10 M NaOH to a final pH of 7.0. […] The working stock solution was used for the selection and MIC evaluations in this example.
3-HP was obtained from TCI America (Portland, Oreg.). Significant acrylic acid and 2-oxydipropionic contamination was observed via HPLC analysis. Samples were subsequently treated by diethyl ether extraction to remove acrylic acid and a portion of the 2-oxydipropionic contaminants. Samples were then neutralized with 10 M NaOH to a final pH of 7.0. […] The working stock solution was used for the selection, growth rates and MIC evaluations in this example.

[2] = Reactive extraction of 3-HP from clarified fermentation broth into tertiary amine non-polar phase with co-solvents; type: physicochemical; conditions: for 3-HP concentration raffinate: start 96.85 g/L 3-HP, single pass
Method: Calcium chloride at 1 M was added as a flocculent to reach a final concentration of about 8.2 g/L. Thereafter the pH was adjusted to a pH of approximately 2.0 using sulfuric acid. Thereafter a volume of this modified fermentation broth was centrifuged at approximately 3,200 g for 5 minutes to yield a clarified broth and a pellet, which was discarded.
Portions of the clarified broth were then subjected to reactive extraction by mixing with a tertiary amine non-polar phase comprising various co-solvents. […] Amines included Alamine 336, described above, and tripentylamine.

E. coli K12 = assay: microbe, parasite or virus in culture; conditions: Escherichia coli, K12, 24 h
E. coli = assay: microbe, parasite or virus in culture; type: cell-based; conditions: Escherichia coli, BW25113, read-out: MIC Assay Result (g/L 3-HP), aerobic
Method: For MIC evaluations, the final results are expressed in chemical agent concentrations determined by analysis of the stock solution by HPLC (i.e., see Subsection IIIb).
The minimum inhibitory concentration (MIC) was determined aerobically in a 96 well-plate format. […] Media supplements were added according to levels reported in the Supplements Table, where specified. Overnight cultures of strains were grown in triplicate in 5 mL LB (with antibiotic where appropriate). A 1% (v/v) inoculum was introduced into a 5 ml culture of M9 minimal media.

[3] = sample 1: Alamine 336 with Butanol
[4] = sample 2: Tripentylamine with Butanol
[5] = sample 3: Tripentylamine with p-Xylene
[6] = sample 4: Tripentylamine with Methyl ethyl ketone
[7] = sample 5: Tripentylamine with Methyl tert-butyl ether
[8] = sample 1: Alamine 336 with Butanol, 3-HP mass start 0.97 G
[9] = sample 2: Tripentylamine with Butanol, 3-HP mass start 1.94 G
[10] = sample 3: Tripentylamine with p-Xylene, 3-HP mass start 1.94 G
[11] = sample 4: Tripentylamine with Methyl ethyl ketone, 3-HP mass start 1.94 G
[12] = sample 5: Tripentylamine with Methyl tert-butyl ether, 3-HP mass start 1.94 G

O=C(O)CCO [3-HP, 3-hydroxypropionic acid]
3-HP concentration in excess of which considerable 3-HP polymerization was observed at neutral pH ([1]; commercial 3-HP (TCI America), ether extracted, neutralized with 10 M NaOH to pH 7.0): approximately 35 g/L | solubility ([1]; pH 7, aqueous buffer): ~35 mg/mL (≈ 389 mM) | Total 3HP extracted [2, 3]: 0.59 G | Total 3HP extracted [2, 4]: 1.13 G | Total 3HP extracted [2, 5]: 0.46 G | Total 3HP extracted [2, 6]: 1.31 G | Total 3HP extracted [2, 7]: 0.73 G | % 3-HP extracted [2, 3]: 61% | % 3-HP raffinate [2, 3]: 39% | 3-HP concentration raffinate ([2]; sample 1: Alamine 336 with Butanol co-solvent): 53.94 g/L | 3-HP mass extractant [2, 8]: 0.59 G | 3-HP mass raffinate [2, 8]: 0.38 G | % 3-HP extracted [2, 4]: 58% | % 3-HP raffinate [2, 4]: 42% | 3-HP concentration raffinate ([2]; sample 2: Tripentylamine with Butanol co-solvent): 54.17 g/L | 3-HP mass extractant [2, 9]: 1.13 G | 3-HP mass raffinate [2, 9]: 0.81 G | % 3-HP extracted [2, 5]: 24% | % 3-HP raffinate [2, 5]: 76% | 3-HP concentration raffinate ([2]; sample 3: Tripentylamine with p-Xylene co-solvent): 78.69 g/L | 3-HP mass extractant [2, 10]: 0.46 G | 3-HP mass raffinate [2, 10]: 1.47 G | % 3-HP extracted [2, 6]: 67% | % 3-HP raffinate [2, 6]: 33% | 3-HP concentration raffinate ([2]; sample 4: Tripentylamine with Methyl ethyl ketone co-solvent): 52.75 g/L | 3-HP mass extractant [2, 11]: 1.31 G | 3-HP mass raffinate [2, 11]: 0.63 G | % 3-HP extracted [2, 7]: 38% | % 3-HP raffinate [2, 7]: 62% | 3-HP concentration raffinate ([2]; sample 5: Tripentylamine with Methyl tert-butyl ether co-solvent): 67.64 g/L | 3-HP mass extractant [2, 12]: 0.73 G | 3-HP mass raffinate [2, 12]: 1.21 G | MIC (E. coli K12; read-out: Minimum inhibitory concentration (MIC) for E. coli K12 in 100 g/L stock solution 3-HP (control)): 20 mg/mL (≈ 222 mM) | MIC (E. coli K12; read-out: Minimum inhibitory concentration (MIC) of 3-HP for E. coli K12 in M9 minimal media): 30 mg/mL (≈ 333 mM) | MIC (E. coli; strain BW25113, no modifications (control), M9): 27.5 g/L (≈ 305 mM) | MIC (E. coli; strain BX_00002.0: BW25113 wild type, pKK223-mcs1 (control), M9 + Amp (100 μg/mL)): 20 g/L | MIC (E. coli; strain BX_00003.0: BW25113 wild type, pBT-3 (control), M9 + Cm (20 μg/mL)): 25 g/L | MIC (E. coli; strain BX_00118.0: BW25113 wild type, pJ251 (control), M9 + Kan (20 μg/mL)): 25 g/L | MIC (E. coli; strain BX_00138.0: BW25113 wild type, pSmart-LC-Kan (control), M9 + Kan (20 μg/mL)): 25 g/L | MIC (E. coli; strain BX_00142.0: BW25113 wild type, pSmart-LC-kan, pBT-3 (control), M9 + Kan (20 μg/mL), Cm (20 μg/mL)): 20 g/L | MIC (E. coli; strain BX_00144.0: BW25113 wild type, pSmart-HC-Amp (control), M9 + Amp (100 μg/mL)): 25 g/L | MIC (E. coli; strain BX_00300.0: BW25113 wild type, pSmart-LC-Kan-tyrA-aroF, M9 + Kan 20 μg/mL): 35 g/L | MIC (E. coli; strain BX_00302.0: BW25113 wild type, pSmart-LC-Kan-folA-ORF, M9 + Kan 20 μg/mL): 30 g/L | MIC (E. coli; strain BX_00305.0: BW25113 wild type, pSmart-LC-Kan-pheA-C1, M9 + Kan 20 μg/mL): 35 g/L | MIC (E. coli; strain BX_00307.0: BW25113 wild type, pSmart-LC-Kan-tyrA-C1, M9 + Kan 20 μg/mL): 35 g/L | MIC (E. coli; strain BX_00309.0: BW25113 wild type, pSmart-LC-Kan-cynTS, M9 + Kan 20 μg/mL): 35 g/L | MIC (E. coli; strain BX_00310.0: BW25113 wild type, pSmart-LC-Kan-glyA, M9 + Kan 20 μg/mL): 35 g/L | MIC (E. coli; strain BX_00312.0: BW25113 wild type, pSmart-LC-Kan-serA, M9 + Kan 20 μg/mL): 35 g/L | MIC (E. coli; strain BX_00313.0: BW25113 wild type, pSmart-LC-Kan-folD, M9 + Kan 20 μg/mL): 30 g/L | MIC (E. coli; strain BX_00314.0: BW25113 wild type, pSmart-LC-Kan-aroE, M9 + Kan 20 μg/mL): 35 g/L | MIC (E. coli; strain BX_00315.0: BW25113 wild type, pSmart-LC-Kan-aroKB C1, M9 + Kan 20 μg/mL): 35 g/L | MIC (E. coli; strain BX_00317.0: BW25113 wild type, pSmart-LC-Kan-ilvA operon, M9 + Kan 20 μg/mL): 35 g/L | MIC (E. coli; strain BX_00318.0: BW25113 wild type, pSmart-LC-Kan-cysM, M9 + Kan 20 μg/mL): 35 g/L | MIC (E. coli; strain BX_00319.0: BW25113 wild type, pK223-aroH, M9 + Amp 100 μg/mL + 1 mM IPTG): 30 g/L | MIC (E. coli; strain BX_00322.0: BW25113 wild type, pJ61-speFED, M9 + Kan 20 μg/mL): 35 g/L | MIC (E. coli; strain BX_00323.0: BW25113 wild type, pJ61-aroG, M9 + Kan 20 μg/mL): 35 g/L | MIC (E. coli; strain BX_00324.0: BW25113 wild type, pJ61-thrA, M9 + Kan 20 μg/mL): 35 g/L
